Here are results for one compound from patent publication US20100216160A1, “METHOD FOR THE SCREENING […] ACTIVITY-MODULATING AGENTS AND MEANS FOR CARRYIING OUT SAID METHOD” (CYTOMICS SYSTEMS, priority 2005, published 2010).

Common to all, as to format: cell-based, Saccharomyces cerevisiae
Assay [1] concerns proteasome of the recombinant yeast cells (CYS344 strain, mAG-p21[6KR]^WAF1/Cip1 fusion protein). Nature of the assay: Degradation of mAG-p21[6KR]WAF1/Cip1 fusion protein in CYS344 yeast cells, immunoblotting (Western blotting). Particulars: 50 μM MG132 added with 2% glucose after 120 minutes galactose, 30, 60 and 120 minutes after glucose. The protocol: (§1) The degradation of the fusion proteins comprising p21^WAF1/Cip1 or p21[6KR]^WAF1/Cip1 fused with mAG by the proteasome of the recombinant yeast cells of CYS 344 and CYS 343 strains was controlled by an immunoblotting technique, in the presence or in the absence of a proteasome inhibitor, the Mg132 compound.
(§2) All the yeast strains used were cultured and analyzed in a similar way.
(§3) The cells were cultured in minimal medium in the presence of galactose as a carbon source for 120 minutes.
(§4) At the end of these 120 minutes, 2% glucose was added to the culture, in the presence and in the absence of 50 μM of a known proteasome inhibitor, the Mg 132.
The results are given on FIG. 3 (FIG. 3A and FIG. 3B). FIG. 3A illustrates the results obtained with the CYS344 recombinant yeast strain.
Total proteins were prepared before adding galactose (0), 60 and 120 minutes following the addition of galactose (+galactose 0, 60, 120) and 30, 60 and 120 minutes (+glucose, 30, 60, 120) following the addition of glucose.
(§5) These proteins were analyzed by immunoblotting technique (“Western blotting”) using an antibody that recognized the p21^WAF1/Cip1 part of the fusion proteins (noted “mAG-p21^WAF1/Cip1” or “mAG-p21[6KR]^WAF1/Cip1” on FIG. 3).
(§6) The presence of MG132 in the culture is indicated by “+MG132” on FIG. 3. […]

The test system of assay [2] is proteasome of yeast cells (CYS343 strain, mAG-p21^WAF1/Cip1 fusion protein). As to the kind of experiment: Flow cytometric quantification (FACS) of fluorescence of mAG-p21WAF1/Cip1 fusion protein in CYS343 yeast cells. Particulars: 50 μM MG132 added with 2% glucose after 120 minutes galactose, time D1h, D2h, D3h. As to the method: (§7) The yeast cells were cultured in the presence or in the absence of the MG132 proteasome inhibitor.
(§8) All the cells were cultured in minimal medium in the presence of galactose as a carbon source for 120 minutes.
(§9) At the end of these 120 minutes, 2% glucose was added to the culture, in the presence and in the absence of 50 μM of a known proteasome inhibitor, the MG132.
(§10) The fluorescence emitted by the cells was quantified using a FacsCalibur flow cytometer (Beckton-Dickinson), immediately before adding galactose (I0), 1 and 2 hour(s) following the addition of galactose (I1 and I2) and 1, 2 and 3 hours (D1, D2 and D3) following the addition of glucose. The presence of Mg132 in the culture is indicated by “+MG132”. The fluorescence is expressed in arbitrary units.
On the technique in general: Flow cytometry measures light scatter and fluorescence of single cells or particles in a stream.

The subject of assay [3] is proteasome of yeast cells (CYS344 strain, mAG-p21[6KR]^WAF1/Cip1 fusion protein). As to the kind of experiment: Degradation of mAG-p21[6KR]WAF1/Cip1 fusion protein in CYS344 yeast cells, epifluorescence microscopy. Particulars: 50 μM MG132 added with 2% glucose after 120 minutes galactose, 0, 60, 120, 180 minutes after glucose. The protocol:
The yeast cells of the CYS344 strain were cultured in minimal medium in the presence of galactose as a carbon source for 120 minutes.
as §9
The cells were observed using an epifluorescence microscope (fluorescent microscope Nikon Eclipse fitted with an Omega XF116 filter). All the pictures were saved on a Hamamastu® camera using similar settings, then analyzed with the LUCIA G software, immediately before adding glucose (0 minute), and 60, 120 and 180 minutes (60, 120, 180 minutes) following the addition of glucose. The presence of MG132 in the culture is indicated by MG132″.

Assay [4] shares this test system. As to the kind of experiment: Flow cytometric quantification (FACS) of fluorescence of mAG-p21[6KR]WAF1/Cip1 fusion protein in CYS344 yeast cells. Conditions: 50 μM MG132 added with 2% glucose after 120 minutes galactose, time D1h, D2h, D3h. As to the method: as §7, §8, §9, §10
The subject of assay [5] is proteasome of the recombinant yeast cells (CYS343 strain, mAG-p21^WAF1/Cip1 fusion protein). As to the kind of experiment: Degradation of mAG-p21WAF1/Cip1 fusion protein in CYS343 yeast cells, immunoblotting (Western blotting). Conditions: 50 μM MG132 added with 2% glucose after 120 minutes galactose, 30, 60, 120 and 150 minutes after glucose. The protocol: as §1, §2, §3, §4
FIG. 3B illustrates the results obtained with the CYS343 recombinant yeast strain. Total proteins were prepared before adding galactose (0), 60 and 120 minutes following the addition of galactose (+galactose 0, 60, 120) and 30, 60, 120 and 150 minutes (+glucose, 30, 60, 120, 150) following the addition of glucose.
as §5, §6

Residues, ends and D or L forms follow the SMILES beside them. *: point of attachment. Cbz = O=C(OCc1ccccc1)*

Consider `CC(C)C[C@@H](C=O)NC(=O)[C@H](CC(C)C)NC(=O)[C@H](CC(C)C)NC(=O)OCc1ccccc1` [MG132] (Cbz-Leu-Leu-Leu-aldehyde), for which the “degradation of the mAG-p21[6KR]WAF1/Cip1 fusion protein (Western blotting)” value in assay [1] is listed as “inhibit the degradation of the fusion protein”. In addition, the “degradation of the mAG-p21WAF1/Cip1 fusion protein (fluorescence, flow cytometry)” value in assay [2] is on record as “strongly inhibited”. Further, the “fluorescence signal intensity of mAG-p21[6KR]WAF1/Cip1 fusion protein versus culture time (epifluorescence microscopy)” value in assay [3] was “fluorescence signal intensity versus culture time was maintained”. Moreover, the “degradation of the mAG-p21[6KR]WAF1/Cip1 fusion protein (fluorescence, flow cytometry)” value in assay [4] is “strongly inhibited”. In addition, the “degradation of the mAG-p21[wt]WAF1/Cip1 fusion protein (Western blotting)” value in assay [5] is recorded as “inhibit the degradation of the fusion protein”.
